Consider 5 compounds from ChEMBL document CHEMBL5050844 (2019).

Structures are written as SMILES. Where only a bound is given, the exact number is not on record here.

A short description of test [1]: Induction of anti-CD3/CD28 antibodies-stimulated human CD4+ T cell activation at 10 uM assessed fold increase in CD69 expression measured by flow cytometry analysis. Type of test: functional, T cell line.
Test [2] is described as follows: Induction of anti-CD3/CD28 antibodies-stimulated human T cell activation at 1 uM assessed fold increase in IL-2 secretion measured by ELISA assay. It counts as functional, T cell line.
Test [3] in a line: Induction of anti-CD3/CD28 antibodies-stimulated human CD8+ T cell activation at 1.11 uM assessed fold increase in CD69 expression measured by flow cytometry analysis. It counts as functional, T cell line. Background: A flow cytometer gives signals particle by particle.
The nature of test [4]: Induction of anti-CD3/CD28 antibodies-stimulated human CD4+ T cell activation at 1.11 uM assessed fold increase in cell proliferation measured by flow cytometry analysis. It counts as functional, T cell line.
Test [5] is described as follows: Induction of anti-CD3 antibodies-stimulated human T cell activation at 1.11 uM assessed fold increase in TNF-alpha secretion measured by ELISA assay. Note: reference of the scale not given here. It counts as functional, T cell line. (ELISA stands for enzyme-linked immunosorbent assay.)
Test [6] can be described thus: Induction of activation of human CD56+ CD3- NK cells co-cultured with human K562 cells in 1:1 ratio and assessed as increase in IFN-gamma secretion at 0.625 uM measured by ELISA assay. It counts as functional, Natural killer cell.
Test [7] in a line: Induction of anti-CD3 antibodies-stimulated human T cell activation at 8 uM assessed fold increase in CD25 expression measured by ELISA assay. Note: reference of the scale not given here. Type of test: functional, T cell line.
Test [8] is described as follows: Induction of anti-CD3 antibodies-stimulated human exhausted T cell activation assessed fold increase in IL-2 secretion measured by ELISA assay. Note: reference of the scale not given here. Type of test: functional, T cell line.
Test [9] is described as follows: Induction of anti-CD3/CD28 antibodies-stimulated human T cell activation at 0.3 uM assessed fold increase in CD25 expression measured by ELISA assay. Type of test: functional, T cell line.
Test [10] can be described thus: Induction of anti-CD3 antibodies-stimulated human T cell activation at 10 uM assessed fold increase in IFN-gamma secretion measured by ELISA assay. Note: reference of the scale not given here. Type of test: functional, T cell line.
The nature of test [11]: Induction of anti-CD3 antibodies-stimulated human T cell activation at 1.11 uM assessed fold increase in GM-CSF secretion measured by ELISA assay. Note: reference of the scale not given here. Type of test: functional, T cell line.
Test [12] can be described thus: Induction of anti-CD3 antibodies-stimulated human exhausted CD8+ T cell activation assessed fold increase in CTLA4 expression measured by flow cytometry analysis. Note: reference of the scale not given here. Type of test: functional, T cell line.
Test [13] in a line: Induction of anti-CD3/CD28 antibodies-stimulated human anergic T cell activation at 10 uM assessed fold increase in IFN-gamma secretion measured by ELISA assay. It counts as functional, T cell line.
The nature of test [14]: Induction of anti-CD3 antibodies-stimulated human CD8+ T cell activation at 1.11 uM assessed fold increase in CD69 expression measured by flow cytometry analysis. Note: reference of the scale not given here. It counts as functional, T cell line.
A short description of test [15]: Induction of anti-CD3 antibodies-stimulated human CD8+ T cell activation at 10 uM assessed fold increase in CD69 expression measured by flow cytometry analysis. Note: reference of the scale not given here. Type of test: functional, T cell line.

Regarding `C[C@H](Cc1nncn1C)c1cccc(NC(=O)c2n[nH]c3c2CCC3)c1`, the “fold change (FC)” value is 1.201 in test [1]; 1.01 in test [2]; 1.201 in test [3]; above 4 in test [4]; “<=1.5” in test [5]; 1.01 in [6]. For the same compound, the “fold change (FC)” value in test [7] is 0.801; in test [8] it was “<=2.5”; in test [9], 1.01; in [10], “<=2”; in test [11], “<=1.5”; in test [12], “<=1.4”. The “fold change (FC)” value in test [13] is given as “<=2.5”; in test [14], 1.401; in test [15], “<=1.2”.

In the case of `C[C@H](Cc1nncn1C)c1cccc(NC(=O)c2nc(C(F)(F)F)c[nH]2)c1`, the “fold change (FC)” value in test [1] is recorded as 1.401; in [2], 2.51; in [3], “<=1.2”; in test [4] it was 2.01; in test [5] it was “<=1.5”; in [6], 2.01. Further, the “fold change (FC)” value is “>=1.001” in test [7]; above 3.01 in [8]; 1.01 in test [9]; 2.01 in [10]; 1.51 in [11]; “<=1.4” in test [12]. Besides, the “fold change (FC)” value is given as 2.51 in [13], “<=1.2” in test [14] and 1.201 in [15].

On to `Cn1cnnc1[C@@H]1C[C@@H]1c1cccc(N2Cc3c(ccnc3C(F)(F)F)C2=O)c1`, for which the “fold change (FC)” value in [1] was 1.401; in test [2], 1.01; in test [3], “<=1.2”; in test [4], “<=2”; in test [5], “<=1.5”; in test [6], 1.01. The “fold change (FC)” value in test [7] was 0.801; in test [8], “<=2.5”; in test [9], 1.01; in test [10], “<=2”; in test [11], “<=1.5”; in [12], “<=1.4”. For the same compound, the “fold change (FC)” value in test [13] is reported as 2.51; in test [14] it was “<=1.2”; in [15], “<=1.2”.

`Cc1cc(C(=O)Nc2cccc([C@@H](C)Cc3nncn3C)c2)nc(C2CC2)n1`: the “fold change (FC)” value in test [1] is on record as 1.401; in test [2], 1.01; in test [3], 1.201; in [4], above 4; in test [5] it was “<=1.5”; in test [6], 1.01. Moreover, the “fold change (FC)” value in [7] is given as “>=1.001”; in test [8], “<=2.5”; in [9], 1.01; in [10], “<=2”; in test [11], “<=1.5”; in test [12] it was “<=1.4”. Further, the figures for the “fold change (FC)” value in [13], in [14] and in test [15] were “<=2.5”, “<=1.2” and 1.201, respectively.

Consider `Cc1cc2c(c(C3CC3)n1)CN(c1cccc([C@H](C)Cc3nncn3C)c1)C2=O`, for which the “fold change (FC)” value in [1] is recorded as 1.201; in test [2], 1.01; in test [3], “<=1.2”; in test [4], “<=2”; in test [5] it was “<=1.5”; in test [6], 1.01. Further, the “fold change (FC)” value in test [7] was 0.801; in test [8] it was “<=2.5”; in [9], 1.01; in test [10], “<=2”; in test [11] it was “<=1.5”; in [12], “<=1.4”. The figures for the “fold change (FC)” value in test [13], in [14] and in test [15] were 2.51, “<=1.2” and 1.201, respectively.
